Source: patent US11718618B2, “Substituted pyrido[2,1-a]isoquinolines as VMAT2 inhibitors” (priority 2021, dated 2023)

Tests used:
human VMAT2 = human VMAT2 (Homo sapiens (Human), UniProt Q05940); test: VMAT2 radioligand binding, 3H-dihydrotetrabenazine competition on human platelet homogenate; settings: 10 nM 3H-dihydrotetrabenazine, human platelet homogenate, 25° C., 90 minutes; read-out: VMAT2 Ki
Outline: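 Human platelet homogenate (30 μg membrane protein/well) in DPBS with 1 mM EDTA, pH 7.4; twelve test-compound concentrations competed against 10 nM ³H-dihydrotetrabenazine. Incubated 90 min at 25 °C, bound radioligand collected by filtration on PEI-pretreated glass-fibre filters and counted by scintillation; Ki derived.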

[1] = Stability of compounds in human liver microsomes; type: in vitro ADME; settings: for CLint scaled at 0.5 μM / half-life at 0.5 μM: both sexes, pH 7.4; for CLint scaled at 0.5 μM: liver microsomes, calculated from HLM half-life, read-out: HLM Scaled Intrinsic Clearance; for CLint scaled at 0.5 μM / Predicted Max. Bioavailability (% F) / HLM Predicted Systemic Clearance: human; for half-life at 0.5 μM: 0.5 μM compound, 0.5 mg/mL human liver microsomes, 37° C., maxed at 420 minutes, read-out: HLM Elimination half-life (t1/2, min); for Predicted Max. Bioavailability (% F): predicted from HLM data; for HLM Predicted Systemic Clearance: scaled from HLM half-life (Obach method)
Outline: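 Compound at 0.5 μM incubated at 37 °C with pooled mixed-gender human liver microsomes (0.5 mg/mL protein) and an NADPH-generating system in pH 7.4 phosphate buffer, sampled 0–60 min. Parent depletion tracked by LC-MS/MS; t1/2 derived from the slope by non-linear regression, with predicted extraction ratio and maximum bioavailability also calculated.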

human VMAT2, sequence (Q05940 whole entry): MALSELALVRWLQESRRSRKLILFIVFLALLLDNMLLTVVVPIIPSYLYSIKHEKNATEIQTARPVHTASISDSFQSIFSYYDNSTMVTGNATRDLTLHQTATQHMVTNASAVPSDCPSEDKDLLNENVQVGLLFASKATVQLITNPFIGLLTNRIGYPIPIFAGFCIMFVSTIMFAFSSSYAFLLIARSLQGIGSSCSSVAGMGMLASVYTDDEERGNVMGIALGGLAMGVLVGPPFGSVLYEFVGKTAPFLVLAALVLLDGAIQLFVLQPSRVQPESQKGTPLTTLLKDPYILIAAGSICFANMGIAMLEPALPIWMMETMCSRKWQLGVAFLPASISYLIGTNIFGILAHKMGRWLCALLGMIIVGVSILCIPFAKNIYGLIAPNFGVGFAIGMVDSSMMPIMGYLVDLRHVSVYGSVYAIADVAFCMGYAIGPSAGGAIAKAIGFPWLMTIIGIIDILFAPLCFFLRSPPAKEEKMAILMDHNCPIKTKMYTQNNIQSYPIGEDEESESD

SMILES	Ki (human VMAT2) [nM]	CLint scaled at 0.5 μM [1] [mL/min/kg]	half-life at 0.5 μM [1] [min]	Predicted Max. Bioavailability (% F) [1] [% F]	HLM Predicted Systemic Clearance [1] [mL/min/kg]
COc1cc2c(cc1OCC(C)(O)C(F)(F)F)CCN1C[C@@H](CC(C)(C)C)[C@H](O)C[C@H]21 (stereo partly drawn) [Compound 4-66, (2R,3R,11bR)-3-(2,2-dimethylpropyl)-10-methoxy-9-(3,3,3-trifluoro-2-hydroxy-2-methylpropoxy)-1H,2H,3H,4H,6H,7H,11bH-pyrido[2,1-a]isoquinolin-2-ol]	10	≤ 2.97	≥ 420	≥87	≤2.59
COc1cc2c(cc1OCC13CC(C(F)(F)F)(C1)C3)CCN1C[C@@H](CC(C)(C)C)[C@H](O)C[C@H]21 [Compound 4-67, (2R,3R,11bR)-3-(2,2-dimethylpropyl)-10-methoxy-9-{[3-(trifluoromethyl)bi-cyclo[1.1.1]pentan-1-yl]methoxy}-1H,2H,3H,4H,6H,7H,11bH-pyrido[2,1-a]isoquinolin-2-ol]	14	≤ 2.97	≥ 420	≥87	≤2.59
CC[C@H](O)COc1cc2c(cc1OC)[C@H]1C[C@@H](O)[C@H](CC(C)(C)C)CN1CC2 [Compound 4-68, (2R,3R,11bR)-3-(2,2-dimethylpropyl)-9-[(2S)-2-hydroxybutoxy]-10-methoxy-1H,2H,3H,4H,6H,7H,11bH-pyrido[2,1-a]isoquinolin-2-ol]	29	6.37	196	76	4.83
COc1cc2c(cc1OCc1ccon1)CCN1C[C@@H](CC(C)(C)C)[C@H](O)C[C@H]21 [Compound 4-69, (2R,3R,11bR)-3-(2,2-dimethylpropyl)-10-methoxy-9-(1,2-oxazol-3-ylmethoxy)-1H,2H,3H,4H,6H,7H,11bH-pyrido[2,1-a]isoquinolin-2-ol]	32	15.5	80	56	8.74
COc1cc2c(cc1OCCOCC#N)CCN1C[C@@H](CC(C)(C)C)[C@H](O)C[C@H]21 [Compound 4-70, 2-(2-{[(2R,3R,11bR)-3-(2,2-dimethylpropyl)-2-hydroxy-10-methoxy-1H,2H,3H,4H,6H,7H,11bH-pyrido[2,1-a]isoquinolin-9-yl]oxy}ethoxy)acetonitrile]	36	11.4	110	64	7.25
COc1cc2c(cc1OCCN1CCC(F)(F)C1)CCN1C[C@@H](CC(C)(C)C)[C@H](O)C[C@H]21 [Compound 4-71, (2R,3R,11bR)-9-[2-(3,3-difluoropyrrolidin-1-yl)ethoxy]-3-(2,2-dimethylpropyl)-10-methoxy-1H,2H,3H,4H,6H,7H,11bH-pyrido[2,1-a]isoquinolin-2-ol]	37	38.4	33	34	13.15
COc1cc2c(cc1OCC1(F)COCCOC1)CCN1C[C@@H](CC(C)(C)C)[C@H](O)C[C@H]21 [Compound 4-72, (2R,3R,11bR)-3-(2,2-dimethylpropyl)-9-[(6-fluoro-1,4-dioxepan-6-yl)methoxy]-10-methoxy-1H,2H,3H,4H,6H,7H,11bH-pyrido[2,1-a]isoquinolin-2-ol]	51	15.6	80	56	8.77
COc1cc2c(cc1OCC1CCN(C#N)CC1)CCN1C[C@@H](CC(C)(C)C)[C@H](O)C[C@H]21 [Compound 4-73]	51	10.5	119	66	6.88
COc1cc2c(cc1OCCc1ccc(C(F)(F)F)cc1)CCN1C[C@@H](CC(C)(C)C)[C@H](O)C[C@H]21 [Compound 4-74, (2R,3R,11bR)-3-(2,2-dimethylpropyl)-10-methoxy-9-{2-[4-(trifluoromethyl)phenyl]ethoxy}-1H,2H,3H,4H,6H,7H,11bH-pyrido[2,1-a]isoquinolin-2-ol]	65	34.6	36	37	12.68
COc1cc2c(cc1OCc1cocn1)CCN1C[C@@H](CC(C)(C)C)[C@H](O)C[C@H]21 [Compound 4-75, (2R,3R,11bR)-3-(2,2-dimethylpropyl)-10-methoxy-9-(1,3-oxazol-4-ylmethoxy)-1H,2H,3H,4H,6H,7H,11bH-pyrido[2,1-a]isoquinolin-2-ol]	76	11.9	104	63	7.48
COc1cc2c(cc1OCC1(O)CCC(F)(F)CC1)CCN1C[C@@H](CC(C)(C)C)[C@H](O)C[C@H]21 [Compound 4-76, (2R,3R,11bR)-9-[(4,4-difluoro-1-hydroxycyclohexyl)methoxy]-3-(2,2-dimethylpropyl)-10-methoxy-1H,2H,3H,4H,6H,7H,11bH-pyrido[2,1-a]isoquinolin-2-ol]	82	≤ 2.97	≥ 420	≥87	≤2.59
COc1cc2c(cc1OCc1cccc(C#N)n1)CCN1C[C@@H](CC(C)(C)C)[C@H](O)C[C@H]21 [Compound 4-77, 6-({[(2R,3R,11bR)-3-(2,2-dimethylpropyl)-2-hydroxy-10-methoxy-1H,2H,3H,4H,6H,7H,11bH-pyrido[2,1-a]isoquinolin-9-yl]oxy}methyl)pyridine-2-carbonitrile]	85	8.01	156	71	5.72
COc1cc2c(cc1OCC1CC(O)(C(F)(F)F)C1)CCN1C[C@@H](CC(C)(C)C)[C@H](O)C[C@H]21 (stereo partly drawn) [Compound 4-78, (2R,3R,11bR)-3-(2,2-dimethylpropyl)-9-{[3-hydroxy-3-(trifluoro-methyl)cyclobutyl]methoxy}-10-methoxy-1H,2H,3H,4H,6H,7H,11bH-pyrido[2,1-a]isoquinolin-2-ol]	92	6.41	195	76	4.86
COc1cc2c(cc1OCC(O)COCC(F)(F)F)CCN1C[C@@H](CC(C)(C)C)[C@H](O)C[C@H]21 (some centres unmarked) [Compound 4-79]	99	5.88	212	77	4.54
COc1cc2c(cc1OCC1CC1)CCN1C[C@@H](CC(C)(C)C)[C@H](O)C[C@H]21 [Compound 4-88, (2R,3R,11bR)-9-(cyclopropylmethoxy)-3-(2,2-dimethylpropyl)-10-methoxy-1H,2H,3H,4H,6H,7H,11bH-pyrido[2,1-a]isoquinolin-2-ol]	0.68	28.1	44	42	11.68
CC[C@@H]1C[C@H]1COc1cc2c(cc1OC)[C@H]1C[C@@H](O)[C@H](CC(C)(C)C)CN1CC2 [Compound 4-90, (2R,3R,11bR)-3-(2,2-dimethylpropyl)-9-{[(1R,2R)-2-ethylcyclopropyl]methoxy}-10-methoxy-1H,2H,3H,4H,6H,7H,11bH-pyrido[2,1-a]isoquinolin-2-ol]	0.29	156	8	11	17.72
COc1cc2c(cc1OC[C@@H](C)OC)CCN1C[C@@H](CC(C)(C)C)[C@H](O)C[C@H]21 [Compound 4-91, (2R,3R,11bR)-3-(2,2-dimethylpropyl)-10-methoxy-9-[(2R)-2-methoxypropoxy]-1H,2H,3H,4H,6H,7H,11bH-pyrido[2,1-a]isoquinolin-2-ol]	28	19.7	63	50	9.92
COc1cc2c(cc1OC[C@H](C)OC)CCN1C[C@@H](CC(C)(C)C)[C@H](O)C[C@H]21 [Compound 4-92, (2R,3R,11bR)-3-(2,2-dimethylpropyl)-10-methoxy-9-[(2S)-2-methoxypropoxy]-1H,2H,3H,4H,6H,7H,11bH-pyrido[2,1-a]isoquinolin-2-ol]	51	25.5	49	44	11.2
COc1cc2c(cc1OC[C@H](C)O)CCN1C[C@@H](CC(C)(C)C)[C@H](O)C[C@H]21 [Compound 4-114, (2R,3R,11bR)-3-(2,2-dimethylpropyl)-9-[(2S)-2-hydroxypropoxy]-10-methoxy-1H,2H,3H,4H,6H,7H,11bH-pyrido[2,1-a]isoquinolin-2-ol]	70	≤ 2.97	≥ 420	≥87	≤2.59
